Test results taken from patent US6852756B1, “Use of pleuromutilin derivatives for transdermal treatment of bacterial diseases” (Novartis Animal Health US Inc., priority 1999, dated 2005).

Columns and labels:
[1] = Preliminary test: transdermal study in pigs (tissue, bile and plasma concentrations after cutaneous administration); type: in vivo; details: 2 × 25 mg/kg of body weight
Method: 1. Preliminary Test: Transdermal Study in Pigs [table] The test solution is administered cutaneously to the skin of the animal and the […], lung, skin, bile and plasma concentrations are determined. For determining the concentrations (μg/ml of plasma or g of tissue) a calibration curve of valnemulin in plasma is used. These investigations are not meant to determine the exact values but to provide only a yes or no answer.

[2] = Assessment of the systemic absorption of valnemulin after cutaneous administration (footbath / foot spray) in cattle; HPLC of blood and milk; type: in vivo; details: lactating cows, footbath Day 1 and Day 3, foot spray Day 5, 10% valnemulin solution
Text: (§1) 2. Assessment of the Systemic Absorption of Valnemulin-Type of Compounds After Cutaneous Administration in Cattle Type of administration: Footbath or directly as spray Test Protocol: Four lactating adult cows with clinical signs of Bovine Digital Dermatitis are recruited to the study. Blood and milk samples are taken before, and at intervals after application of a water/ethanol solution containing 10% valnemulin either as a footbath, or directly by spraying the feet. Test Formulation: Water/ethanol solution containing 10% valnemulin [table] Footbath solutions are prepared fresh each treatment day. A calculated quantity of test product is added to an estimated volume of water, which is placed in the footbath beforehand. The cows are driven individually into the footbath and made to stand there with their feet covered by footbath solution for 2 minutes. Foot spraying involves the use of a hand operated spraying device into which 100 ml of the test product are placed. Said 100 ml are distributed between the feet of each cow and applied directly to the lower leg areas and around and underneath each foot. Valnemulin content of samples is determined by a validated High Performance Liquid Chromatography (HPLC) method. Day 1; a.m. milking samples (50 ml/sample) are taken before the first treatment, thus serving as control measurements. […]

[3] = test system: Bovine Digital Dermatitis; experiment: Footbath / foot spray treatment of lactating cows with clinical signs of Bovine Digital Dermatitis (footrot); type: in vivo, cattle; details: four lactating cows; footbath Day 1 and Day 3, foot spray Day 5; 10% valnemulin solution; after one week
Method: as §1, with “Disease: Footrot” for “2. Assessment of the Systemic Absorption of Valnemulin-Type of Compounds After Cutaneous Administration in Cattle”, “feet.” for “feet. Test Formulation: Water/ethanol solution containing 10% valnemulin [table]”, “foot.” for “foot. Valnemulin content of samples is determined by a validated High Performance Liquid Chromatography (HPLC) method. Day 1; a.m. milking samples (50 ml/sample) are taken before the first treatment, thus serving as control measurements.”

[4] = Additional experiments: topical application as a spot on, tissue amounts, pigs; type: in vivo
[5] = Additional experiments: topical application as a spot on, tissue amounts, cattle; type: in vivo
[6] = Animal No 1, water solution containing 10% valnemulin
[7] = Animal No 2, 40% ethanol/water solution containing 10% valnemulin

Compound: C=C[C@]1(C)C[C@@H](OC(=O)CSC(C)(C)CNC(=O)[C@H](N)C(C)C)[C@]2(C)[C@H](C)CC[C@]3(CCC(=O)[C@H]32)[C@@H](C)[C@@H]1O [valnemulin]
- bile concentration [1, 6]: 0.155 μg/ml of plasma or g of tissue
- liver concentration [1, 6]: 0.175 μg/ml of plasma or g of tissue
- lung concentration [1, 6]: 0.916 μg/ml of plasma or g of tissue
- plasma concentration 3 hours after 1st application [1, 6]: <limit of detection
- plasma concentration 6 hours after 1st application [1, 6]: <limit of detection
- skin concentration [1, 6]: 39.056 μg/ml of plasma or g of tissue
- bile concentration [1, 7]: <limit of detection
- liver concentration [1, 7]: 0.132 μg/ml of plasma or g of tissue
- lung concentration [1, 7]: 0.353 μg/ml of plasma or g of tissue
- plasma concentration 3 hours after 1st application [1, 7]: <limit of detection
- plasma concentration 6 hours after 1st application [1, 7]: 0.07 μg/ml of plasma or g of tissue
- skin concentration [1, 7]: 6.965 μg/ml of plasma or g of tissue
- valnemulin concentrations in blood samples [2]: found in most milk and blood samples
- valnemulin concentrations in milk samples [2]: found in most milk and blood samples
- symptoms of footrot after treatment [3]: none of the treated cows shows any symptoms of footrot
- amounts of active ingredient found in tissues (brain, liver, muscle, spleen, lung) [4]: fairly high amounts
- amounts of active ingredient found in tissues (brain, liver, muscle, spleen, lung) [5]: fairly high amounts
